Experimental data as given in paper PMC11243066, “Synthesis and Biological Evaluation of Novel Biased Mu-Opioid Receptor Agonists” (Molecules, 2024).
Where two headings read alike, the source gives them in different places.

What was measured:
[1] = system: mice; test: Hot-water tail withdrawal test; type: in vivo, CD-1 mice; conditions: 20 mg/kg i.v. tail vein, 15 min post administration
Protocol: (§1) Food and water were provided ad libitum.
The hot-water tail withdrawal test was performed as described previously. In brief, the hot-water tail withdrawal test was conducted using a water bath maintained at 55 ± 0.5 °C. The distal 3 cm section of the mouse’s tail was immersed perpendicularly into the hot water. The duration for which the tail remained in the water was recorded as the initial tail withdrawal latency (TWL0). […] Following the administration of a single dose of the test compound (20 mg/kg, i.v.) or vehicle, the subsequent tail withdrawal latency (TWL) was measured at various time intervals (15, 30, 45, 60, and 90 min). To prevent potential tissue damage, a maximum cutoff latency of 16 s was enforced. Antinociception was quantified using the percentage of maximal possible effect (%MPE), calculated as %MPE = 100 × (TWL − TWL0)/(16 − TWL0).

[2] = target: T1, human μ-opioid receptor (Homo sapiens, UniProt P35372); test: cell-based; type: cell-based; conditions: CHO/μOR cells; for EC50: cAMP inhibition, "-" = no measurable activity, read-out: EC50 (nM) (95% CI), µOR-Gi/o activation assay; for EC50 / Emax: n = 3; for Emax: at the concentration printed in parentheses in the cell, read-out: Max Effect ± SEM (%), µOR-Gi/o activation assay
T1 construct: expressed in transfected cells; host or cells: CHO (CHO/μOR cells)
Protocol: The inhibition assay was performed as described previously. In brief, tested compound dilutions (with final concentrations of 100 µM, 50 µM, 10 µM, 1 µM, 500 nM, 100 nM, 50 nM, 10 nM, 1 nM, and 100 pM) were produced in saline or DMSO in triplicate. CHO/μOR cells were suspended in the assay buffer and counted, maintaining a cell density of 2000 cells per well, with 5 µL from each well seeded into a 384-well plate. Subsequently, 5 µL of the tested compound solution per well was dispensed into the plate, which was then placed in a 25 °C incubator and incubated in the dark for 30 min. Next, 10 µL of cAMP standard working solution was added to the empty wells of the plate, followed by the addition of 5 µL of Eu-cAMP and Anti-cAMP per well. The plate was subsequently placed back in a 25 °C incubator and further incubated in the dark for 1 h.
CHO cells expressing the human μ-opioid receptor were cultivated for the assessment of compound effects. […] Cells collected during the exponential phase of growth were dissociated without enzymes to preserve receptor integrity, resuspended in assay buffer, and counted to achieve a uniform concentration. Cell density was adjusted to 2000 cells per well in a 384-well plate, promoting uniform distribution and optimal receptor presence. Post-seeding at 25 °C in darkness facilitated cell adherence and stabilization prior to compound introduction. Compounds were added in serial dilutions, with meticulous dispensing techniques ensuring dose uniformity. Following a 1 h incubation at 25 °C, TR-FRET reagents were applied to measure cAMP levels, indicative of μOR activity. The Envision system recorded these levels, quantifying compound inhibitory effects. Meticulous aseptic techniques and vigilant monitoring were imperative throughout to guarantee data precision from the assay.

[3] = target: T2, human μOR β-arrestin2 pathway (Homo sapiens, UniProt P35372); test: cell-based; type: cell-based; conditions: for Emax: read-out: Max Effect ± SEM (%), µOR β-arrestin recruitment assay; for EC50: "-" = no measurable activity, read-out: EC50 (nM) (95% CI), µOR β-arrestin recruitment assay
T2 construct: β-galactosidase enzyme fragment (PathHunter complementation tag); host or cells: U2OS (U2OS/human μOR β-arrestin cells)
Protocol: In this assay, optical signal values were detected employing the PathHunter® (DiscoverX, Shanghai, China) Detection Kit assay method. The agonistic activity of tested compounds on the human μOR β-arrestin2 pathway was quantified using a β-galactosidase-based enzyme fragment complementation assay. In brief, tested compound dilutions (with final concentrations of 100 μM, 50 μM, 10 μM, 1 μM, 500 nM, 100 nM, 50 nM, 10 nM, 1 nM, and 100 pM) were produced in saline or DMSO in triplicate. Next, 100 nL of the tested compound solution per well was dispensed into a 384-well cell culture plate. The U2OS/human μOR β-arrestin cells were resuspended in Opti-MEM and counted to achieve a cell density of 4000 cells per well, and 20 μL from each well was seeded into the 384-well cell culture plate. The plate was subsequently incubated at 37 °C in the dark for 120 min. Post-incubation, the cell plate was equilibrated to room temperature for 10–20 min, and 5 μL of the detection reagent were added to each well. Following a 60 min incubation at 25 °C, chemiluminescent readings were obtained using the envision system.
The cells were maintained at 37 °C with 5% CO2 in McCoy’s 5a medium with supplements and cultivated utilizing precise techniques to ensure accurate, reproducible results. Cells were gently dissociated for assays to maintain receptor integrity and resuspended in Opti-MEM® for compatibility with the PathHunter® (DiscoverX, Shanghai, China). Detection Kit. Cell density was adjusted to 4000 cells per well in a 384-well plate, to ensure that a uniform monolayer was established for the β-galactosidase assay. After seeding and incubation in the dark at 37 °C to facilitate cell attachment, the plates were equilibrated to room temperature prior to compound treatment. Serial dilutions of the compounds were assessed for pharmacological effect. A detection reagent was then added to measure β-galactosidase activity as indicative of μ-opioid receptor and β-arrestin2 interaction. Following reagent incubation, chemiluminescence was quantified, providing quantitative data on compound agonistic activity. Throughout, meticulous aseptic technique and strict adherence to protocols were imperative to ensure the integrity of the pharmacological data derived from these studies.

[4] = system: mice; test: Formalin paw-licking test; type: in vivo, CD-1 mice; conditions: 20 mg/kg i.v. tail vein, Phase II
Protocol: as §1
The formalin injection assay was performed as described previously. […] After 15 min, 30 µL of a 2.7% formalin solution was administered into the right hind paw of each mouse. Then, the mice were put into the cage and their behaviors were observed. The antinociception rate was quantified as the percentage of maximal possible effect (%MPE), calculated as %MPE = 100 × (PLTV − PLTT)/PLTV; PLTV and PLTT represent the average paw-licking duration during Phase II for the vehicle and test groups, respectively.

[5] = system: mice; test: Acetic acid-induced writhing test; type: in vivo, CD-1 mice; conditions: 20 mg/kg i.v. tail vein
Protocol: as §1
The acetic acid-induced writhing test was performed as described previously. In brief, after pretreatment with the test compound at a dose of 20 mg/kg via intravenous tail vein injection, 1% (v/v) glacial acetic acid was administered intraperitoneally (i.p.) at a dose of 10 mL/kg. Subsequently, the number of writhing responses over a 20 min period was recorded. The antinociception rate was calculated as the percentage of maximal possible effect (%MPE), where %MPE = 100 × (NWV − NWT)/NWV. NWV and NWT represent the average number of writhing responses of the vehicle and test groups, respectively.

[6] = system: mice; test: Physical dependence (naloxone-precipitated withdrawal jumping); conditions: i.v. once daily for 5 days, PZM21 and 6a 20 mg/kg, morphine 2 mg/kg, jumps over 20 min
Protocol: (§2) The mice were group-housed in a controlled temperature environment and subjected to a 12 h light/dark cycle (lights on from 07:00 to 19:00). Food and water were provided ad libitum. All animal procedures were conducted in accordance with the policies and recommendations of the International Association for the Study of Pain and the National Health and Animal Welfare Committee of the Beijing Institute of Pharmacology, with the aim of minimizing the number of animals used and their suffering.

[7] = system: mice; test: Respiratory depression (blood pO2, blood gas analyzer); conditions: single i.v. dose 20 mg/kg (morphine 4 mg/kg), 5-40 min
Protocol: as §2

[8] = U2OS/human μOR β-arrestin cells, at the concentration printed in parentheses in the cell, n = 3
[9] = U2OS/human μOR β-arrestin cells, n = 3

T1 sequence (P35372 whole entry): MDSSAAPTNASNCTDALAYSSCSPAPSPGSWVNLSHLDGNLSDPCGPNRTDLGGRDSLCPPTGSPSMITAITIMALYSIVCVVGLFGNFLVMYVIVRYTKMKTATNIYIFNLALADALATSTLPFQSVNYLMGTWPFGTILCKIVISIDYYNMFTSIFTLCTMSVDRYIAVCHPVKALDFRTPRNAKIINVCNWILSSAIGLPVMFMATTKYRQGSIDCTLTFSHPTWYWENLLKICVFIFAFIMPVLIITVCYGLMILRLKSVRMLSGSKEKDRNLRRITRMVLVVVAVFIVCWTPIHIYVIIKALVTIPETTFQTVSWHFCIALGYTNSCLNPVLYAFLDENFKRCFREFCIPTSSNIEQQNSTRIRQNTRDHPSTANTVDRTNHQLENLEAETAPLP
T2 sequence (P35372 whole entry, the tested form may be a part): as the sequence (P35372 whole entry) above

Compound	pain inhibition rate (%MPE), hot-water tail-withdrawal test [1]	EC50 [2]	Emax [2]	Emax [3, 8]	EC50 [3, 9]	antinociceptive efficacy (%MPE), formalin-induced paw licking, second phase [4]	µOR agonist efficacy in Gi/o-protein signaling assay (in words) [2]	analgesia rate (%MPE), acetic acid-induced writhing [5]	Emax ([3]; U2OS)	physical dependence: jumping after naloxone-precipitated withdrawal vs vehicle [6]	respiratory depression: partial pressure of oxygen in blood vs vehicle [7]
CN(C)[C@H](CNC(=O)NCCc1ccccc1)Cc1cccc2ccccc12 [6b, (S)-1-(2-(dimethylamino)-3-(naphthalen-1-yl)propyl)-3-phenethyl urea]	35.89%	110 nM	73.9 ± 2.38%	1.99 ± 1.77%	> 100000 nM						
CN(C)[C@H](CNC(=O)NCc1ccc(F)cc1)Cc1cccc2ccccc12 [6c, (S)-1-(2-(dimethylamino)-3-(naphthalen-1-yl)propyl)-3-(4-fluorobenzyl) urea]		72.8 nM	42.67 ± 0.27%	1.06 ± 0.93%	> 100000 nM						
CN(C)[C@H](CNC(=O)NCCc1ccc(F)cc1)Cc1cccc2ccccc12 [6d, (S)-1-(2-(dimethylamino)-3-(naphthalen-1-yl)propyl)-3-(4-fluorophenethyl) urea]		88 nM	87.8 ± 1.18%	7.72 ± 2.88%	> 100000 nM						
COc1ccc(CCNC(=O)NC[C@H](Cc2cccc3ccccc23)N(C)C)cc1 [6e, (S)-1-(2-(dimethylamino)-3-(naphthalen-1-yl)propyl)-3-(4-methoxyphenethyl) urea]		> 100000 nM	-1.41 ± 5.21%	2.95 ± 1.37%	> 100000 nM						
Cc1ccccc1CCNC(=O)NC[C@H](Cc1cccc2ccccc12)N(C)C [6f, (S)-1-(2-(dimethylamino)-3-(naphthalen-1-yl)propyl)-3-(2-methylphenethyl) urea]		107 nM	84.8 ± 1.86%	5.45 ± 1.75%	> 100000 nM	59.32%	significant µOR agonist efficacy	exceeding 97%			
CN(C)[C@H](CNC(=O)Nc1ccccc1)Cc1cccc2ccccc12 [6g, (S)-1-(2-(dimethylamino)-3-(naphthalen-1-yl)propyl)-3-phenyl urea]		59.5 nM	24.6 ± 0.4%	1.12 ± 0.52%	> 100000 nM		significant µOR agonist efficacy				
Cc1ccccc1CNC(=O)NC[C@H](Cc1cccc2ccccc12)N(C)C [6h, (S)-1-(2-(dimethylamino)-3-(naphthalen-1-yl)propyl)-3-(2-methylbenzyl) urea]	41.73%	13.1 nM	41.7 ± 0.07%	2.19 ± 1.91%	> 100000 nM	78.03%	significant µOR agonist efficacy	exceeding 97%			
Cc1ccccc1NC(=O)NC[C@H](Cc1cccc2ccccc12)N(C)C [6i, (S)-1-(2-(dimethylamino)-3-(naphthalen-1-yl)propyl)-3-(o-tolyl) urea]		> 100000 nM	7.1 ± 0.77%	1.96 ± 0.72%	> 100000 nM						
CN(C)[C@H](CNC(=O)NCc1ccco1)Cc1cccc2ccccc12 [6j, (S)-1-(2-(dimethylamino)-3-(naphthalen-1-yl)propyl)-3-(furan-2-ylmethyl) urea]		97.8 nM	27.2 ± 1.71%	1.63 ± 0.32%	> 100000 nM		significant µOR agonist efficacy				
CN(C)[C@H](CNC(=O)NCC1CCCCC1)Cc1cccc2ccccc12 [6k, (S)-1-(cyclohexylmethyl)-3-(2-(dimethylamino)-3-(naphthalen-1-yl)propyl) urea]		> 100000 nM	20.4 ± 10.6%	4.15 ± 0.02%	> 100000 nM			exceeding 97%			
CN(C)[C@H](CNC(=O)NC1CCCCC1)Cc1cccc2ccccc12 [6l, (S)-1-cyclohexyl-3-(2-(dimethylamino)-3-(naphthalen-1-yl)propyl) urea]		> 100000 nM	18.1 ± 1.81%	1.96 ± 0.45%	> 100000 nM						
C[C@@H](NC(=O)[C@@H](N)Cc1ccc(O)cc1)C(=O)NCC(=O)N(C)[C@@H](Cc1ccccc1)C(=O)NCCO [DAMGO, [D-Ala2, N-MePhe4, Gly-ol]-enkephalin, reference compound]									91.2%		
CN1CC[C@]23c4c5ccc(O)c4O[C@H]2[C@@H](O)C=C[C@H]3[C@H]1C5 [Morphine]										significantly greater frequency of jumping	significant reduction in the partial pressure of oxygen level
C[C@@H](Cc1ccsc1)NC(=O)NC[C@H](Cc1ccc(O)cc1)N(C)C [PZM21, reference compound]	69.23%		89.8 ± 2.93%	3.09 ± 0.42%		72.72%	significant µOR agonist efficacy			neither 6a nor PZM21 elicited a significant increase in withdrawal behaviors	neither the 6a group nor the PZM21 group demonstrated any reduction in respiratory measures
